The values that follow come from patent publication US20140378541A1, “Synthetic Epigallocatechin Gallate (EGCG) Analogs” (WAYNE STATE UNIVERSITY, priority 2011, published 2014).

The test system of experiment [1] is CD44high/CD24low cell population of MDA-MB-231 cells. The experiment is described as follows: Flow cytometry of CD44high/CD24low cell population in MDA-MB-231 cells. Type of experiment: cell-based, human. Conditions: 48 h. As for the experimental part:
The MDA-MB-231 cells were treated with the indicated concentrations of compounds 23 and 30 for 48 hours, followed by flow cytometry analysis. Columns show mean of three experiments; bars, SD; **, p<0.01; *, p<0.1.
The treated cells were washed once with phosphate-buffered saline (PBS) and then harvested with Cell Dissociation Buffer (enzyme-free, Invitrogen, cat. #13150-016). Detached cells were washed with PBS containing 1% FCS (a wash buffer), and resuspended in the wash buffer (1,000 cells/100 μl). The cells were stained with combinations of fluorochrome-conjugated monoclonal antibodies obtained from BD Biosciences (San Diego, Calif.) against human CD44 (FITC; cat. #555478) and CD24 (PE; cat. #555428) or their respective isotype controls at concentrations recommended by the manufacturer and incubated at 4° C. in the dark for 30 to 40 min. The labeled cells were washed in the wash buffer, then fixed in PBS containing 1% paraformaldehyde, and then analyzed on a FACSVantage (BD Biosciences) (Sheridan et al. Breast Cancer Res. (2006) 8, R59).
The flow cytometry analysis was performed as follows: The treated cells were washed once with phosphate-buffered saline (PBS) and then harvested with Cell Dissociation Buffer (enzyme-free, Invitrogen, cat. #13150-016). Detached cells were washed with PBS containing 1% FCS (a wash buffer), and resuspended in the wash buffer (1,000 cells/100 μl). The cell were stained with combinations of fluorochrome-conjugated monoclonal antibodies obtained from BD Biosciences (San Diego, Calif., USA) against human CD44 (FITC; cat. #555478) and CD24 (PE; cat. #555428) or their respective isotype controls at concentrations recommended by the manufacturer and incubated at 4° C. in the dark for 30 to 40 min. The labeled cells were washed in the wash buffer, then fixed in PBS containing 1% paraformaldehyde, and then analyzed on a FACSVantage (BD Biosciences) (Sheridan et al., Breast Cancer Res., 2006, 8: R59).
Metformin could selectively target cancer stem cells and reduce the CD44high/CD24low cell population in TNBC cells through activation of AMPK signaling (Hirsch et al., Cancer Research, 2009, 69: 7507-7511). To determine whether EGCG analogs 23 and 30 can reduce the stem cell population in the breast cancer cells, the human breast cancer MDA-MB-231 cells were treated with different concentrations of compounds 23 and 30 for 48 hours. The treated cells were stained with special antibodies against human CD44 (FITC), CD24 (PE) or their respective isotype controls, followed by washing, fixing and analysed by flow cytometry.
For orientation: Flow cytometry measures light scatter and fluorescence of single cells or particles in a stream.

A further experiment concerns MDA-MB-231 cells. The experiment is described as follows: Combination with docetaxel or erlotinib, Western blot (PARP cleavage, p-EGFR), MDA-MB-231 cells. Conditions: 24 h; for sensitization to docetaxel (apoptotic cell death, PARP cleavage): 20 μM plus 10 nM docetaxel; for sensitization to erlotinib (p-EGFR reduction, PARP cleavage): 20 μM plus 2.5 μM erlotinib. Type of experiment: cell-based, human. As for the experimental part:
In FIG. 9A, human breast cancer MDA-MB-231 cells were treated with 20 μM of EGCG, Pro-EGCG and EGCG analogs (compounds 5, 7, 23, 30 and 31), or 10 mM of metformin for 3 hrs. Cell lysates were analyzed by Western blot using antibodies of anti-AMPK, p-AMPK, PARP, p-EGFR, EGFR or β-actin. In FIG. 9B, human breast cancer MDA-MB-231 cells were treated with 20 μM of EGCG analogs 23 and 30, 10 nM of docetaxel alone, or combined treatment with compounds 23 and 30 plus docetaxel for 24 hrs. Cell lysates were analyzed by Western blot using antibodies of anti-AMPK, p-AMPK, PARP, p-EGFR, EGFR or β-actin. In FIG. 9C, cells were incubated in medium (0.1% BSA without FBS) containing 20 μM of 23, 30, 2.5 μM of Erlotinib (Eb) alone or the combinations as indicated for 24 hrs. Cell lyses were analyzed by Western blot using antibodies of anti-AMPK, p-AMPK, PARP, p-EGFR, EGFR or β-actin.
The Western blot analysis was performed as follows: A whole cell extract was prepared from the treated cells as described previously (Landis-Piwowar et al., Cancer research, 2007, 67: 4303-4310; Chen et al., Cancer research, 2007, 67: 1636-1644; Chen et al., Biochemical pharmacology, 2005, 69: 1421-1432). The cell extracts (30 μg) were then separated by an SDS-PAGE gel and transferred to nitrocellulose membranes. The membrances were blotted by specific antibodies including anti-AMPK, p-AMPK, EGFR, p-EGFR (Cell Signaling Tech. Danvers, Mass.), PARP (Enzo Life Sciences, Plymouth Meeting, Pa.), actin (Santa Cruz Biotechnology, Santa Cruz, Calif.). The membranes were visualized by enhanced chemiluminescence, as described previously (Landis-Piwowar et al., Cancer research, 2007, 67: 4303-4310; Chen et al., Cancer research, 2007, 67: 1636-1644; Chen et al., Biochemical pharmacology, 2005, 69: 1421-1432).
In FIG. 9A, human breast cancer MDA-MB-231 cells were treated with 20 μM of EGCG, Pro-EGCG and other EGCG analogs (compounds 5, 7, 23, 30 and 31), or 10 mM of metformin for 3 hrs. Cell lysates were analyzed by Western blot using antibodies of anti-AMPK, p-AMPK, PARP, p-EGFR, EGFR or β-actin. In FIG. 9B, human breast cancer MDA-MB-231 cells were treated with 20 μM of EGCG analogs 23 and 30, 10 nM of docetaxel alone, or combined treatment with compounds 23 and 30 plus docetaxel for 24 hrs.
For orientation: In western blotting, separated proteins are transferred to a membrane and probed.

SMILES strings stand for the structures.

Turning to `O=C(O[C@H]1Cc2ccccc2C[C@H]1OC(=O)c1cc(O)c(Br)c(O)c1)c1cc(O)c(Br)c(O)c1` [Compound 23], the “reduction of CD44high/CD24low cell population (in words)” value in experiment [1] is given as “can reduce the CD44high/CD24low cell population”. Further, in the experiment with MDA-MB-231 cells, the “sensitization to docetaxel (apoptotic cell death, PARP cleavage)” value is “sensitize these TNBC cells to Docetaxel” and the “sensitization to erlotinib (p-EGFR reduction, PARP cleavage)” value is “sensitize these TNBC cells to the EGFR inhibitor Erlotinib”.

For `Nc1ccc(C(=O)O[C@H]2Cc3ccccc3C[C@H]2OC(=O)c2ccc(N)cc2)cc1` [Compound 30], in experiment [1] (10 μM), the “decrease of the CD44high/CD24low population” value is 43.3%. Further, the “decrease of the CD44high/CD24low population” value in experiment [1] (20 μM) worked out at 71.7%. Also, the “reduction of CD44high/CD24low cell population (in words)” value in experiment [1] is “can reduce the CD44high/CD24low cell population”. In the experiment on MDA-MB-231 cells, the “sensitization to docetaxel (apoptotic cell death, PARP cleavage)” value is on record as “sensitize these TNBC cells to Docetaxel” and the “sensitization to erlotinib (p-EGFR reduction, PARP cleavage)” value is on record as “sensitize these TNBC cells to the EGFR inhibitor Erlotinib”.
